# Test results reported in PMC4707489, “A novel cell-penetrating peptide suppresses breast tumorigenesis by inhibiting β-catenin/LEF-1 signaling” (Scientific Reports, 2016).
# What was measured:
# [1] = tested on: MCF-7-YFP cells xenograft; assay: Xenograft tumor growth in nude mice; assay type: in vivo, mouse; details: MCF-7 xenograft, 1 and 10 mg/kg intratumoral once every 2 days for 35 days, n = 5 per group, vs control peptide
# From the text: (§1) All animal experiments were approved by the Kaohsiung Medical University Institutional Animal Care and Use Committee (IACUC Approval No: 101156) and we accordance with the approved guidelines. Female nude mice (4–5 weeks old) were obtained from the National Laboratory Animal Center (Taipei, Taiwan). Xenograft tumor models were established by subcutaneous injection of 1 × 10^7 MCF-7-YFP or MDA-MB-231-GFP cells into the right flanks of mice. Mice with palpable tumors were randomly divided into three groups with five animals in each group. The mice were treated with control peptide, […], 1 and 10 mg/kg TAT-NLS-BLBD-6 by intratumoral injection once every 2 days for 35 days. The fluorescence density was analyzed by an In Vivo Imaging System (IVIS) (Berthold Technologies, Bad Wildbad, Germany), and the tumor volumes (V) of nude mice were calculated by: V = length × diameter^2 × 0.5. For zebrafish xenotransplantation, zebrafishes (Danio rerio) were maintained at 28 °C in an air incubator, and 1 × 10^4 MCF-7-GFP or MDA-MB-231-GFP cells combined with TAT-NLS-BLBD-6 or control peptide were injected into the zebrafish embryos according to the previously described protocol. The fluorescence density was measured 24 and 28 hr after injection using an epifluorescence microscope.
# [2] = tested on: MDA-MB-231-GFP cells xenograft; assay: Xenograft tumor growth in nude mice; assay type: in vivo, mouse; details: MDA-MB-231 xenograft, 1 and 10 mg/kg intratumoral once every 2 days for 35 days, n = 5 per group, vs control peptide
# From the text: as §1
# MDA-MB-231 cells [3] = assay: Cell growth (CCK-8); assay type: cell-based, human
# Method: (§3) Cell growth was analyzed using 2-(2-methoxy-4-nitrophenyl)-3-(4-nitroph enyl)-5-(2,4-disulfophenyl)-2H-tetrazolium, monosodium salt, and the Cell Counting Kit-8 (CCK-8, Sigma). […] After culturing for another 48 hr, cell growth was analyzed by CCK-8 and the optical density was detected at 450 nm. The growth ratio was normalized to the cells without treatment.
# MCF-7 cells [4] = assay: Cell growth (CCK-8); assay type: cell-based, human
# Method: as §3
# [5] = tested on: MDA-MB-231-GFP cells in zebrafish embryos; assay: Zebrafish xenotransplantation, fluorescence density; assay type: in vivo, Danio rerio; details: MDA-MB-231-GFP co-injected with 100 μmol/l peptide into yolk sacs, between 24 hr and 48 hr, n = 20 per group, vs TAT-NLS-BLBD-6m
# From the text: as §1, with “The fluorescence density was measured 24 and 28 hr after injection using an epifluorescence microscope.” left out
# [6] = tested on: MCF-7-GFP cells in zebrafish embryos; assay: as above; assay type: in vivo, Danio rerio; details: MCF-7-GFP co-injected with 100 μmol/l peptide into yolk sacs, between 24 hr and 48 hr, n = 20 per group, vs TAT-NLS-BLBD-6m
# From the text: as §1, with “The fluorescence density was measured 24 and 28 hr after injection using an epifluorescence microscope.” left out
# MCF-7 cells [7] = assay: Wound-healing migration assay; assay type: cell-based, human; details: MCF-7, 100 μmol/l, 48 hr post-transfection, vs control or TAT-NLS-BLBD-6m (Fig. 3d)
# Method: (§2) Transwell chambers of […] pore size were used in the in vitro invasion assay. MCF-7 and MDA-MB-231 cells were seeded onto the upper chamber and incubated with TAT-NLS-BLBD-6 and TAT-NLS-BLBD-6m peptide and 10% fetal bovine serum medium were added to the bottom chamber well. After 24 hr, cells invading the lower chamber were fixed with 4% paraformaldehyde solution and stained with 0.1% crystal violet for 30 min at 37 °C. Three random field images were obtained by microscopy, and the number of invading cells were counted. For the migration assay, MCF-7 and MDA-MB-231 cells were seeded onto 6-well plates. After 24 hr, an artificial wound was created using a 10-μl pipette tip, and the wound was incubated with TAT-NLS-BLBD-6 or TAT-NLS-BLBD-6m for 24 hr at 37 °C. The images of wound healing were captured by microscopy, and the wound healing distances were calculated by Image J (U.S. National Institutes of Health, Bethesda, MD, USA). For the colony formation assay, MCF-7 and MDA-MB-231 cells were seeded into 10-cm dishes with the medium containing TAT-NLS-BLBD-6 or TAT-NLS-BLBD-6m. After 2 weeks, cells were fixed with 4% paraformaldehyde solution and stained with 0.1% crystal violet for 30 min at 37 °C.
# MDA-MB-231 cells [8] = assay: Wound-healing migration assay; assay type: cell-based, human; details: MDA-MB-231, 100 μmol/l, 48 hr post-transfection, vs control or TAT-NLS-BLBD-6m (Fig. 3d)
# Method: as §2
# breast cancer cells = assay: Cell growth in combination with E2, BBP or TAM (CCK-8); assay type: cell-based, human; details: 48 hr (Fig. 1e)
# Method: as §3
# MCF-7 cells [9] = assay: Transwell invasion assay; assay type: cell-based, human; details: MCF-7, 100 μmol/l, 48 hr post-transfection, vs control or TAT-NLS-BLBD-6m (Fig. 3c)
# Method: as §2
# MDA-MB-231 cells [10] = assay: Transwell invasion assay; assay type: cell-based, human; details: MDA-MB-231, 100 μmol/l, 48 hr post-transfection, vs control or TAT-NLS-BLBD-6m (Fig. 3c)
# Method: as §2
# [11] = Body weight and toxicity in xenograft models; assay type: in vivo, mouse
# From the text: as §1
substance,measurement,setting,value
H-TAT-NLS-ATDEMIPF-NH2 [TAT-NLS-BLBD-6],tumor growth,[1],inhibited tumor growth
same,tumor growth,[2],inhibited tumor growth
same,cell growth,"MDA-MB-231 cells [3]; 75 μmol/l peptide, MDA-MB-231, CCK-8, means of three experiments (Fig. 1b)",inhibited the growth
same,time and dose dependence of cell growth,"MDA-MB-231 cells [3]; MDA-MB-231, indicated concentrations, 24, 48 and 72 hr (Fig. 1c,d)",inhibited breast cancer cell growth in a time- and dose-dependent manner
same,cell growth,"MCF-7 cells [4]; 75 μmol/l peptide, MCF-7, CCK-8, means of three experiments (Fig. 1b)",inhibited the growth
same,time and dose dependence of cell growth,"MCF-7 cells [4]; MCF-7, indicated concentrations, 24, 48 and 72 hr (Fig. 1c,d)",inhibited breast cancer cell growth in a time- and dose-dependent manner
same,fluorescence density of transplanted tumor cells,[5],gradually reduced
same,fluorescence density of transplanted tumor cells,[6],gradually reduced
same,migration (wound healing),MCF-7 cells [7],inhibited the mobility
same,migration (wound healing),MDA-MB-231 cells [8],inhibited the mobility
same,cell growth of normal mammary epithelial cells,H184B5F5/M10 cells,did not inhibit the growth
same,"cell growth, combination with E2 or BBP",breast cancer cells; peptide 100 μmol/l with E2 (1 μM) or BBP (1 μM),blocked the activity of E2 and BBP
same,"cell growth, combination with TAM",breast cancer cells; peptide 100 μmol/l with TAM (1 μM),increased the response of TAM
same,invasion,MCF-7 cells [9],inhibited the mobility
same,invasion,MDA-MB-231 cells [10],inhibited the mobility
same,body weight,"[11]; nude mice, 1 and 10 mg/kg intratumoral once every 2 days for 35 days, vs control peptide",without having any effect on body weight
same,signs of toxicity,[11]; nude mouse and zebrafish xenotransplantation models,no signs of toxicity
